Experimental data: the supplement of paper PMC10307832

Columns and labels:
Test in all cases: relative viability (nuclei count vs DMSO), 5 days (fraction); higher = more cells survive
[1] = compound: Cc1ccc(F)c(NC(=O)Nc2ccc(-c3cccc4[nH]nc(N)c34)cc2)c1 [Linifanib] + CC(C)C[C@H](NC(=O)[C@H](Cc1ccccc1)NC(=O)c1cnccn1)B(O)O [Bortezomib] (partner 0.002 µM)
Procedure, shortened: (§1)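 Nuclei were stained with Hoechst during a one-step fixation (final 0.05% Triton X-100, 1% formaldehyde, 1 ug/ml Hoechst) carried out 5 days after dosing, then counted on 4× images. The cells, lung cancer lines in 1536-well plates, had been dosed by pin tool the day after seeding with one drug alone or a fixed anchor-drug dose plus five library-drug doses (not always all listed) in √10 steps. Relative viability is the nuclei count in treated wells divided by that in vehicle wells, and each value is the median of duplicate plates.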

[2] = compound: Cc1ccc(F)c(NC(=O)Nc2ccc(-c3cccc4[nH]nc(N)c34)cc2)c1 [Linifanib] + CCNC(=O)c1noc(-c2cc(C(C)C)c(O)cc2O)c1-c1ccc(CN2CCOCC2)cc1 [Luminespib] (partner 0.01 µM)
Procedure, shortened: as §1

[3] = compound: Cc1ccc(F)c(NC(=O)Nc2ccc(-c3cccc4[nH]nc(N)c34)cc2)c1 [Linifanib] + C[C@@H](Oc1cc(-c2cnn(C3CCNCC3)c2)cnc1N)c1c(Cl)ccc(F)c1Cl [Crizotinib] (partner 1 µM)
Procedure, shortened: as §1

[4] = compound: Cc1ccc(F)c(NC(=O)Nc2ccc(-c3cccc4[nH]nc(N)c34)cc2)c1 [Linifanib] + Cc1cc(Nc2cc(N3CCN(C)CC3)nc(Sc3ccc(NC(=O)C4CC4)cc3)n2)n[nH]1 [Tozasertib] (partner 0.1 µM)
Procedure, shortened: as §1

[5] = compound: Cc1ccc(F)c(NC(=O)Nc2ccc(-c3cccc4[nH]nc(N)c34)cc2)c1 [Linifanib] + Nc1ncn([C@H]2C[C@H](O)[C@@H](CO)O2)c(=O)n1 [Decitabine] (partner 2 µM)
Procedure, shortened: as §1

[6] = compound: Cc1ccc(F)c(NC(=O)Nc2ccc(-c3cccc4[nH]nc(N)c34)cc2)c1 [Linifanib] + CC(=O)Nc1cccc(-n2c(=O)n(C3CC3)c(=O)c3c(Nc4ccc(I)cc4F)n(C)c(=O)c(C)c32)c1 [Trametinib] (partner 0.02 µM)
Procedure, shortened: as §1

Cell Line	relative viability ([1]; first compound 0.03162 µM)	relative viability ([1]; first compound 0.1 µM)	relative viability ([1]; first compound 0.3162 µM)	relative viability ([2]; first compound 0.03162 µM)	relative viability ([2]; first compound 0.1 µM)	relative viability ([2]; first compound 0.3162 µM)	relative viability ([3]; first compound 0.03162 µM)	relative viability ([3]; first compound 0.1 µM)	relative viability ([3]; first compound 0.3162 µM)	relative viability ([4]; first compound 0.03162 µM)	relative viability ([4]; first compound 0.1 µM)	relative viability ([4]; first compound 0.3162 µM)	relative viability ([5]; first compound 0.03162 µM)	relative viability ([5]; first compound 0.1 µM)	relative viability ([5]; first compound 0.3162 µM)	relative viability ([6]; first compound 0.03162 µM)	relative viability ([6]; first compound 0.1 µM)	relative viability ([6]; first compound 0.3162 µM)
NCI-H1755	1.04	0.965	0.916	0.586	0.599	0.447	0.888	0.957	0.841	0.585	0.625	0.553	0.696	0.731	0.698	0.781	0.801	0.831
NCI-H1915	1.01	0.937	0.98	0.826	0.804	0.679	0.9	0.923	0.838	0.436	0.469	0.399	0.286	0.247	0.257	0.279	0.339	0.297
NCI-H1975	0.504	0.376	0.389	0.202	0.139	0.251	1	1.02	0.984	0.681	0.901	0.722	0.384	0.446	0.413	0.298	0.525	0.355
NCI-H1993	1.1	1.39	1.2	0.864	0.933	1.03	1.01	0.932	0.867	0.62	0.638	0.57	0.631	0.654	0.59	0.623	0.593	0.61
NCI-H2009	1.25	1.05	0.963	1.03	1.05	0.965	1.07	1.08	0.526	0.718	0.834	0.71	0.371	0.41	0.378	0.266	0.343	0.274
NCI-H2023	1.03	1.28	0.975	0.7	0.925	0.757	0.679	0.774	0.544	0.322	0.398	0.293	0.228	0.228	0.203	0.538	0.675	0.554
NCI-H2085	1.07	1.06	0.971	0.4	0.481	0.384	0.863	1.03	0.818	0.793	0.772	0.843	0.535	0.632	0.573	0.67	0.503	0.59
NCI-H2087	1.06	0.608	0.849	0.175	0.193	0.171	0.602	1.03	0.655	0.295	0.254	0.267	0.31	0.248	0.268	0.188	0.235	0.195
NCI-H2126	1.05	1.1	1.14	0.896	0.967	0.91	1.03	1.04	0.975	0.847	0.998	0.806	0.58	0.538	0.575	0.584	0.571	0.547
NCI-H2347	1.11	1.16	0.778	0.479	0.408	0.348	0.727	0.7	0.812	0.615	0.523	0.591	0.622	0.616	0.598	0.283	0.292	0.264
NCI-H2405	1.05	0.958	0.957	0.626	0.933	0.741	0.855	0.86	0.85	0.785	0.809	0.778	0.766	0.747	0.756	0.599	0.675	0.596
NCI-H3122	1.01	1	0.989	0.0911	0.0897	0.0958	0.281	0.263	0.261	0.456	0.437	0.371	0.442	0.418	0.487	0.273	0.251	0.19
PC-3 [JPC-3]	0.728	0.805	0.77	0.744	0.731	0.579	1	1.01	0.986	0.893	0.979	0.811	0.766	0.792	0.847	0.706	0.756	0.659
PC-14	0.924	0.989	0.746	0.201	0.197	0.147	0.919	1	0.793	0.499	0.502	0.552	0.231	0.252	0.206	0.689	0.715	0.666
RERF-LC-KJ	1.25	1.22	0.991	1.3	1.28	1.25	0.833	0.778	0.745	0.46	0.531	0.578	0.707	0.651	0.717	0.871	0.87	0.877
SK-LU-1	1.11	1.2	1.19	0.195	0.181	0.227	1.03	0.958	0.864	0.317	0.331	0.323	0.672	0.645	0.669	0.457	0.745	0.48
SW 1573	0.972	1.04	1.08	0.162	0.26	0.253	0.784	0.91	0.74	0.195	0.193	0.189	0.514	0.604	0.584	0.505	0.674	0.563
UMC-11	0.961	0.731	0.668	0.958	1.1	1.08	0.657	0.604	0.598	0.214	0.201	0.222	0.585	0.562	0.581	0.807	0.721	0.774
